Test: refractive index (other wavelength) (dimensionless); xn = mol fraction of the nth substance listed
Settings: 101 kPa, Liquid, Standard Abbe refractometry

CC(C)OC(C)C [diisopropyl ether] + CC(C)O
refractive index
Settings | Wavelength=404.7 nm | Wavelength=435.8 nm | Wavelength=486.1 nm | Wavelength=546.1 nm | Wavelength=587.6 nm | Wavelength=589.3 nm | Wavelength=632.8 nm | Wavelength=644 nm | Wavelength=706.5 nm
298.15 K, x1 = 0.0277 | – | – | – | – | – | 1.37492 | 1.3736 | 1.37329 | 1.37183
298.15 K, x1 = 0.0507 | – | – | – | – | – | 1.37483 | 1.37352 | 1.37322 | 1.37174
298.15 K, x1 = 0.051 | – | – | – | – | – | 1.37489 | 1.37358 | 1.37327 | 1.37179
298.15 K, x1 = 0.0717 | – | – | – | – | – | 1.37462 | 1.37331 | 1.373 | 1.37152
298.15 K, x1 = 0.1528 | – | – | – | – | – | 1.37401 | 1.3727 | 1.3724 | 1.37093
298.15 K, x1 = 0.1553 | – | – | – | – | – | 1.37401 | 1.3727 | 1.3724 | 1.37093
298.15 K, x1 = 0.1938 | – | – | – | – | – | 1.37373 | 1.37243 | 1.37213 | 1.37068
298.15 K, x1 = 0.2029 | – | – | – | – | – | 1.37346 | 1.37215 | 1.37185 | 1.37039
298.15 K, x1 = 0.245 | – | – | – | – | – | 1.37306 | 1.37177 | 1.37147 | 1.37002
298.15 K, x1 = 0.297 | – | – | – | – | – | 1.37259 | 1.3713 | 1.371 | 1.36955
298.15 K, x1 = 0.2973 | – | – | – | – | – | 1.37284 | 1.37156 | 1.37126 | 1.3698
298.15 K, x1 = 0.3068 | – | – | – | – | – | 1.37238 | 1.37108 | 1.37078 | 1.36933
298.15 K, x1 = 0.398 | – | – | – | – | – | 1.37122 | 1.36993 | 1.36964 | 1.36819
298.15 K, x1 = 0.4609 | – | – | – | – | – | 1.37063 | 1.36933 | 1.36903 | 1.36758
298.15 K, x1 = 0.5434 | – | – | – | – | 1.36987 | 1.36981 | 1.36853 | 1.36823 | 1.36678
298.15 K, x1 = 0.6032 | – | – | – | – | 1.3693 | 1.36925 | 1.36797 | 1.36767 | 1.36623
298.15 K, x1 = 0.6371 | – | – | – | – | 1.36894 | 1.36889 | 1.36762 | 1.36731 | 1.36587
298.15 K, x1 = 0.701 | – | – | – | – | 1.36828 | 1.36823 | 1.36695 | 1.36666 | 1.36523
298.15 K, x1 = 0.754 | – | – | – | – | 1.36792 | 1.36786 | 1.36659 | 1.36629 | 1.36485
298.15 K, x1 = 0.791 | – | – | – | – | 1.36756 | 1.3675 | 1.36623 | 1.36593 | 1.3645
298.15 K, x1 = 0.8296 | – | – | – | – | 1.36723 | 1.36717 | 1.36589 | 1.36559 | 1.36417
298.15 K, x1 = 0.8864 | – | – | – | – | 1.367 | 1.36695 | 1.36567 | 1.36537 | 1.36394
298.15 K, x1 = 0.8903 | – | – | – | – | 1.36659 | 1.36653 | 1.36526 | 1.36497 | 1.36354
298.15 K, x1 = 0.9113 | – | – | – | – | 1.3667 | 1.36631 | 1.36504 | 1.36475 | 1.36332
298.15 K, x1 = 0.9547 | – | – | – | – | 1.36596 | 1.36587 | 1.36459 | 1.3643 | 1.36289
298.15 K, x1 = 0.973 | – | – | – | – | 1.3656 | 1.36557 | 1.3643 | 1.364 | 1.36258
298.15 K, x1 = 0.9771 | – | – | – | – | 1.36557 | 1.36551 | 1.36423 | 1.36393 | 1.36281
298.15 K, x1 = 1 | – | – | – | – | 1.36535 | 1.3653 | 1.36402 | 1.36373 | 1.36237
303.15 K, x1 = 0.0277 | 1.38362 | 1.3806 | 1.37718 | 1.37435 | 1.37285 | 1.37279 | 1.37149 | 1.37119 | 1.36973
303.15 K, x1 = 0.0507 | 1.38359 | 1.38056 | 1.37714 | 1.3743 | 1.3728 | 1.37274 | 1.37145 | 1.37115 | 1.36969
303.15 K, x1 = 0.051 | 1.38351 | 1.38049 | 1.37707 | 1.37423 | 1.37273 | 1.37268 | 1.37138 | 1.37107 | 1.36962
303.15 K, x1 = 0.0717 | 1.38322 | 1.3802 | 1.37678 | 1.37395 | 1.37244 | 1.37238 | 1.37109 | 1.37079 | 1.36934
303.15 K, x1 = 0.1528 | 1.38258 | 1.37956 | 1.37614 | 1.37331 | 1.37181 | 1.37176 | 1.37047 | 1.37018 | 1.36872
303.15 K, x1 = 0.1553 | 1.38258 | 1.37956 | 1.37614 | 1.37331 | 1.37181 | 1.37176 | 1.37047 | 1.37018 | 1.36872
303.15 K, x1 = 0.1938 | 1.38229 | 1.37926 | 1.37584 | 1.37303 | 1.37153 | 1.37147 | 1.37018 | 1.36988 | 1.36843
303.15 K, x1 = 0.2029 | 1.38193 | 1.37892 | 1.37549 | 1.37266 | 1.37116 | 1.37111 | 1.36981 | 1.36952 | 1.36807
303.15 K, x1 = 0.245 | 1.38148 | 1.37846 | 1.37506 | 1.37223 | 1.37075 | 1.37069 | 1.36941 | 1.36911 | 1.36767
303.15 K, x1 = 0.297 | 1.38091 | 1.37798 | 1.37446 | 1.37163 | 1.37013 | 1.37008 | 1.3688 | 1.3685 | 1.36705
303.15 K, x1 = 0.2973 | 1.38111 | 1.37809 | 1.37467 | 1.37184 | 1.37036 | 1.37031 | 1.36902 | 1.36872 | 1.36727
303.15 K, x1 = 0.3068 | 1.38076 | 1.37775 | 1.37433 | 1.37149 | 1.37001 | 1.36996 | 1.36867 | 1.36837 | 1.36692
303.15 K, x1 = 0.398 | 1.37951 | 1.3765 | 1.37309 | 1.37025 | 1.36877 | 1.36872 | 1.36744 | 1.36715 | 1.3657
303.15 K, x1 = 0.4609 | 1.37885 | 1.37585 | 1.37245 | 1.3696 | 1.36818 | 1.36807 | 1.3668 | 1.3665 | 1.36501
303.15 K, x1 = 0.5434 | 1.37802 | 1.37503 | 1.37161 | 1.36879 | 1.36731 | 1.36726 | 1.36598 | 1.36567 | 1.36425
303.15 K, x1 = 0.6032 | 1.37738 | 1.3744 | 1.37096 | 1.36815 | 1.36667 | 1.36661 | 1.36533 | 1.36504 | 1.36362
303.15 K, x1 = 0.6371 | 1.37701 | 1.37401 | 1.37059 | 1.36779 | 1.36631 | 1.36626 | 1.36497 | 1.36466 | 1.36326
303.15 K, x1 = 0.701 | 1.37631 | 1.37333 | 1.36992 | 1.36711 | 1.36564 | 1.36559 | 1.36431 | 1.36401 | 1.36259
303.15 K, x1 = 0.754 | 1.37593 | 1.37295 | 1.36954 | 1.36673 | 1.36525 | 1.36519 | 1.36391 | 1.36362 | 1.36221
303.15 K, x1 = 0.791 | 1.37553 | 1.37254 | 1.36913 | 1.36633 | 1.36485 | 1.3648 | 1.36352 | 1.36323 | 1.36182
303.15 K, x1 = 0.8296 | 1.37518 | 1.37221 | 1.3688 | 1.36599 | 1.36453 | 1.36447 | 1.3632 | 1.3629 | 1.36148
303.15 K, x1 = 0.8864 | 1.37495 | 1.37197 | 1.36856 | 1.36576 | 1.3643 | 1.36424 | 1.36297 | 1.36267 | 1.36126
303.15 K, x1 = 0.8903 | 1.37451 | 1.37154 | 1.36813 | 1.36533 | 1.36386 | 1.36381 | 1.36254 | 1.36225 | 1.36083
303.15 K, x1 = 0.9113 | 1.37428 | 1.37131 | 1.36791 | 1.36511 | 1.36365 | 1.3636 | 1.36233 | 1.36203 | 1.36061
303.15 K, x1 = 0.9547 | 1.37382 | 1.37084 | 1.36747 | 1.36465 | 1.36319 | 1.36314 | 1.36187 | 1.36157 | 1.36016
303.15 K, x1 = 0.973 | 1.37347 | 1.3705 | 1.36711 | 1.3643 | 1.36285 | 1.36279 | 1.36153 | 1.36123 | 1.35983
303.15 K, x1 = 0.9771 | 1.37338 | 1.3704 | 1.36702 | 1.36421 | 1.36275 | 1.3627 | 1.36145 | 1.36115 | 1.35972
303.15 K, x1 = 1 | 1.37321 | 1.37022 | 1.36687 | 1.36406 | 1.3626 | 1.36255 | 1.3613 | 1.361 | 1.3596

Reference: the NIST ThermoML archive (doi:10.1016/j.fluid.2014.09.014)
